# From patent publication US5519024A, “Quinolonecarboxylic acid derivatives and their use” (Takeda Chemical Industries, Ltd., priority 1993, dated 1996)
# Target: T1, GPIIb/IIIa (Homo sapiens, UniProt P05106+P08514)
# T1 construct: Purification of GPIIb/IIIa from HEL cells; endogenous in cells; host or cells: HEL cells (HEL 92.1.7, ATCC TIB180); endogenous complex solubilized with Triton X-100 and purified in house
# Assay: Inhibitory activity against binding of GPIIb/IIIa and fibrinogen
# Conditions: Table 1, read-out: GPIIb/IIIa Fibrinogen Binding Inhibitory Activity
# How it was run: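 Plates were coated with GPIIb/IIIa purified from HEL cells (1 μg/ml) and blocked with BSA. Test sample and biotinylated human fibrinogen (added as 100 nM solution) reacted 3 h at 30° C or overnight at room temperature in Tris buffer, 2 mM CaCl2, pH 7.4. Bound fibrinogen was detected with anti-biotin alkaline phosphatase and p-nitrophenyl phosphate.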
# T1 sequence (P08514 32-887 limits assumed): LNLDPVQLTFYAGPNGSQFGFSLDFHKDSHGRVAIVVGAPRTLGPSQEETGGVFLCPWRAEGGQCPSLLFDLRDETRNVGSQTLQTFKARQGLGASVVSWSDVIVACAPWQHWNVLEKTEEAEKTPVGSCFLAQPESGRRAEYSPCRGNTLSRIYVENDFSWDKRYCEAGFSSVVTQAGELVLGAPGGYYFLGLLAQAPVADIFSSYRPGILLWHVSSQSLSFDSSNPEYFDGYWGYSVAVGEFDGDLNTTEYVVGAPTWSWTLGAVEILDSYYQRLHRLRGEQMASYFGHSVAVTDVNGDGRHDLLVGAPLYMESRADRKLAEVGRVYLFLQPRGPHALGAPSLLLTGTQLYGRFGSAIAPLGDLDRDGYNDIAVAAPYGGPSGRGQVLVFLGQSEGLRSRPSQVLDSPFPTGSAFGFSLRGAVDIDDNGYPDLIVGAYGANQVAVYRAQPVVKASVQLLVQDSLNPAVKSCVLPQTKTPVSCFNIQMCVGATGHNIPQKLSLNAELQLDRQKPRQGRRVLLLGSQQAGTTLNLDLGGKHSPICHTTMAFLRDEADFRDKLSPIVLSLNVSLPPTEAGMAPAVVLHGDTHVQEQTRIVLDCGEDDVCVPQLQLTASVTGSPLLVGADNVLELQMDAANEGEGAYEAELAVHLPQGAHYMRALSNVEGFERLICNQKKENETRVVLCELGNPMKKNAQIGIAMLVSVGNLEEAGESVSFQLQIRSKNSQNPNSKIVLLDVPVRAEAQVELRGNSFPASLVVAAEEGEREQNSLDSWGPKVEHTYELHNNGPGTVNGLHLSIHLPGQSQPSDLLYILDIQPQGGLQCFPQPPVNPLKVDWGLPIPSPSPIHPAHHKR
# T1 sequence (P08514 891-1039 limits assumed): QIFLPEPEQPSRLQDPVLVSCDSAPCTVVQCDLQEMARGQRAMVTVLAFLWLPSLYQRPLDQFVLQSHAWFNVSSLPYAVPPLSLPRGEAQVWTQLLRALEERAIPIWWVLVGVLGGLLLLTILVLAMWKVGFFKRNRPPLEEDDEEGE
# T1 sequence (P05106 27-788): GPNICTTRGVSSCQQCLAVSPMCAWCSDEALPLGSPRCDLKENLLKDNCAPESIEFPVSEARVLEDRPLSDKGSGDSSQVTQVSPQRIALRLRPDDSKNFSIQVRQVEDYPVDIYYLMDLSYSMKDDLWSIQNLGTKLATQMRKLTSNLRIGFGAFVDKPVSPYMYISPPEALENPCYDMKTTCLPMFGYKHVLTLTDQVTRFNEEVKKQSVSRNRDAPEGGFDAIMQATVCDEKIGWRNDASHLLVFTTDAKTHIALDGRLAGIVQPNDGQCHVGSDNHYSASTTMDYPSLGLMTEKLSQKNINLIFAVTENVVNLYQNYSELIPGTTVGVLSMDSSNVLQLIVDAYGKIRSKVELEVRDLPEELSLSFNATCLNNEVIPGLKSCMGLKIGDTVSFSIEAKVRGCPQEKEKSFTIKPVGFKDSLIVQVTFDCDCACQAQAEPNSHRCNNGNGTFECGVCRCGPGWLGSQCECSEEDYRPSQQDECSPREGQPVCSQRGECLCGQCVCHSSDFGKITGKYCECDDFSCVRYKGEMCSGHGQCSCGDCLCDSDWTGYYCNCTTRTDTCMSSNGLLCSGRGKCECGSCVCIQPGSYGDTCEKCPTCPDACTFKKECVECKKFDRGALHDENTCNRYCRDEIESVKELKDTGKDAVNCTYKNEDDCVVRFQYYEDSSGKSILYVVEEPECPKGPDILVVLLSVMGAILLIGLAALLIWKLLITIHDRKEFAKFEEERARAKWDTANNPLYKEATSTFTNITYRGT
structure (smiles),measurement,setting,value
"CCn1cc(C(=O)O)c(=O)c2cc(F)c(N3CCNCC3)cc21 [Norfloxacin, reference compound]",inhibition at 10 µM,1 × 10^-5 M,77.4%
same,inhibition at 1 µM,1 × 10^-6 M,38.7%
